In patent publication US11667602B2, “Compounds and their use” (AstraZeneca AB, priority 2020, dated 2023):

Target: T1, human RXFP1 (Homo sapiens, UniProt Q9HBX9)
T1 sequence (Q9HBX9 1-757): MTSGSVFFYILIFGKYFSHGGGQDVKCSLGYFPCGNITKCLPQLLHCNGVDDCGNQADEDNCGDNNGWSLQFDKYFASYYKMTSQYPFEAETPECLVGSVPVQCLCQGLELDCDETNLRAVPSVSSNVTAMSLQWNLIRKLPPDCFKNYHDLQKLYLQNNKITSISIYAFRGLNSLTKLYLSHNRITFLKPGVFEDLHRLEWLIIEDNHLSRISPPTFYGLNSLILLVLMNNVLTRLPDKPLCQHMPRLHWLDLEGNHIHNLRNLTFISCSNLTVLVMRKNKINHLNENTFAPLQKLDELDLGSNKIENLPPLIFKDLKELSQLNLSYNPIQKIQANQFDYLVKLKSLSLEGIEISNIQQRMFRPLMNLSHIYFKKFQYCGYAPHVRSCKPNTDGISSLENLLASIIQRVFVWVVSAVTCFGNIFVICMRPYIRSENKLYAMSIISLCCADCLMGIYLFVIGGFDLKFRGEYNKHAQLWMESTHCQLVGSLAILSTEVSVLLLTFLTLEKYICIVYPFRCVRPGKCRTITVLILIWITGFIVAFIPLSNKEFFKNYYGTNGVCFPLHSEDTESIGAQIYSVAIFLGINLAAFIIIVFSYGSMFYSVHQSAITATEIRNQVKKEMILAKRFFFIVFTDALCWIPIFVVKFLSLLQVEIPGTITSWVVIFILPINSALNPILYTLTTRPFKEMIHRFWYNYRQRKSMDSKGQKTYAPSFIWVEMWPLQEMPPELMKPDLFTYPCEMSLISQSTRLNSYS
Assay: RXFP1 Hu cAMP (Test A)
Format: cell-based
Parameters: expressed in transfected cells; host or cells: Jump-In T-REx CHO-K1 cells (ThermoFisher), induced with 10 ng/ml doxycycline for 24 h
Conditions: RXFP1 Hu cAMP; for EC50: read-out: Test A EC50
Outline: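 Competitive HTRF cAMP readout (2 h, room temperature) in CHO-K1 cells stably expressing human RXFP1, induced with 10 ng/ml doxycycline for 24 h; IBMX 0.5 mM final.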

Compound	Test A Sinf [%]	EC50 [nM]
(1R,4s)-4-(2-Cyano-4-fluoro-5-(((2S*,3R*)-3-(((1-methylcyclobutyl)methyl)carbamoyl)bicyclo[2.2.2]octan-2-yl)carbamoyl)phenoxy)-1-methylcyclohexane-1-carboxylic acid [Example 589]	83	–
COc1cc(F)c(-c2ccc(O)c(C(=O)O)c2)cc1C(=O)N[C@H]1[C@@H]2CC[C@@H](C2)[C@H]1C(=O)Nc1cccc(S(=O)(=O)C(F)(F)F)c1 (single isomer, unassigned) [Example 556]	114	130
COc1cc(F)c(OC[C@H]2C[C@H](C(=O)O)C2)cc1C(=O)N[C@@H]1[C@@H]2CC[C@@H](C2)[C@@H]1C(=O)Nc1cccc(S(=O)(=O)C(F)(F)F)c1 [Example 472, (1R,3r)-3-((2-Fluoro-4-methoxy-5-(((1R,2R,3S,4S)-3-((3-((trifluoromethyl)sulfonyl)phenyl)carbamoyl)bicyclo[2.2.1]heptan-2-yl)carbamoyl)phenoxy)methyl)cyclobutane-1-carboxylic acid]	91	–
COc1cc(F)c(O[C@H]2CC[C@@](C)(C(=O)O)CC2)cc1C(=O)N[C@@H]1[C@H]2CC[C@H](C2)[C@@H]1C(=O)N[C@H]1CCN(S(=O)(=O)C(F)(F)F)C1 [Example 606]	90	420
Cn1ncc2c(O[C@H]3CC[C@@](C)(C(=O)O)CC3)cc(C(=O)N[C@@H]3[C@H]4CC[C@H](C4)[C@@H]3C(=O)NCC3(C)CCC3)cc21 [Example 379]	100	480
COc1cc(C#N)c(O[C@H]2CC[C@@](C)(C(=O)O)CC2)cc1C(=O)N[C@@H]1[C@H]2CC[C@H](C2)[C@@H]1C(=O)NC[C@H](C)c1ccccc1 [Example 118]	99	43
COc1cc(F)c(-c2cnc([C@@H]3C[C@H]3C(=O)O)cn2)cc1C(=O)N[C@@H]1[C@H]2CC[C@H](C2)[C@@H]1C(=O)Nc1cccc(S(=O)(=O)C(F)(F)F)c1 (single isomer, unassigned) [Example 263, (1R*,2R*)-2-(5-(2-Fluoro-4-methoxy-5-(((1S,2R,3S,4R)-3-((3-((trifluoromethyl)sulfonyl)phenyl)carbamoyl)bicyclo[2.2.1]heptan-2-yl)carbamoyl)phenyl)pyrazin-2-yl)cyclopropane-1-carboxylic acid]	106	84
COC[C@]1(C(=O)O)CC[C@H](Oc2cc(C(=O)N[C@@H]3[C@@H]4CC[C@@H](C4)[C@@H]3C(=O)Nc3cccc(S(=O)(=O)C(F)(F)F)c3)c(OC)cc2F)CC1 [Example 480]	100	98
COc1cc(F)c(O[C@H]2CC[C@@](F)(C(=O)O)CC2)cc1C(=O)N[C@@H]1[C@H]2CC[C@H](C2)[C@@H]1C(=O)NCC1(C)CCC1 [Example 415]	103	–
COc1ccc(-c2cc(C(=O)N[C@H]3[C@@H](C(=O)Nc4cccc(S(=O)(=O)C(F)(F)F)c4)[C@@H]4C=C[C@H]3C4)c(OC)cc2F)cc1C(=O)O (racemic) [Example 230]	116	1000
COc1cc(F)c(OC2CCC(C(=O)O)CC2)cc1C(=O)N[C@H]1[C@@H](C(=O)Nc2cccc(S(=O)(=O)C(F)(F)F)c2)[C@@H]2C=C[C@H]1C2 (mixture of isomers) [Example 457]	56	–
COc1cc(F)c(-c2ccc(C(=O)O)cn2)cc1C(=O)N[C@H]1[C@@H](C(=O)Nc2cccc(S(=O)(=O)C(F)(F)F)c2)[C@@H]2C=C[C@H]1C2 (racemic) [Example 278]	104	–
CC1(CNC(=O)[C@H]2[C@@H]3CC[C@@H](C3)[C@H]2NC(=O)c2cc(O[C@H]3CC[C@@](C)(C(=O)O)CC3)cc3cccnc23)CCC1 [Example 407]	99	260
COc1cc(C#N)c(O[C@H]2CC[C@@](C)(C(=O)O)CC2)cc1C(=O)N[C@@H]1[C@H]2CC[C@H](C2)[C@@H]1C(=O)NCCC(C)(C)C [Example 130]	95	78
CC1(CNC(=O)[C@H]2[C@@H]3CC[C@@H](C3)[C@H]2NC(=O)c2cc(O[C@H]3CC[C@@](C)(C(=O)O)CC3)c(F)cc2C#N)CCC1 [Example 377]	100	–
COc1cc(F)c(O[C@H]2CC[C@@](C)(C(=O)O)CC2)cc1C(=O)N[C@@H]1[C@H]2OCO[C@H]2C[C@@H]1C(=O)Nc1cccc(S(=O)(=O)C(F)(F)F)c1 (racemic) [Example 395, (1R,4s)-4-(2-Fluoro-4-methoxy-5-(((3aRS,4SR,5SR,6aSR)-5-((3-((trifluoromethyl)sulfonyl)phenyl)carbamoyl)tetrahydro-4H-cyclopenta[d][1,3]dioxol-4-yl)carbamoyl)phenoxy)-1-methylcyclohexane-1-carboxylic acid]	101	31
CC[C@]1(C(=O)O)CC[C@@H](Oc2cc(C(=O)N[C@@H]3[C@H]4CC[C@H](C4)[C@@H]3C(=O)NCC(C)(C)C)c(OC)cc2F)CC1 [Example 386]	114	70
COc1cc(F)c(OCc2cccc(C(C)(C)C(=O)O)c2)cc1C(=O)N[C@H]1[C@@H](C(=O)Nc2cccc(S(=O)(=O)C(F)(F)F)c2)[C@@H]2C=C[C@H]1C2 (racemic) [Example 454]	76	–
COc1cc(F)c(OC2CC(CC(=O)O)C2)cc1C(=O)NC1C2CCC(C2)C1C(=O)Nc1cccc(S(=O)(=O)C(F)(F)F)c1 [Example 474, 2-((1R,3r)-3-(2-Fluoro-4-methoxy-5-(((1R,2R,3S,4S)-3-((3-((trifluoromethyl)sulfonyl)phenyl)carbamoyl)bicyclo[2.2.1]heptan-2-yl)carbamoyl)phenoxy)cyclobutyl)acetic acid]	118	650
COc1cc(F)c(O[C@H]2CC[C@@](C)(C(=O)O)CC2)cc1C(=O)N[C@@H]1CCCCC[C@@H]1C(=O)Nc1cccc(S(=O)(=O)C(F)(F)F)c1 (racemic) [Example 354]	95	11
COc1cc(F)c(-c2cnc([C@@H]3C[C@H]3C(=O)O)cn2)cc1C(=O)N[C@@H]1[C@H]2CC[C@H](C2)[C@@H]1C(=O)Nc1cccc(S(=O)(=O)C(F)(F)F)c1 (single isomer, unassigned) [Example 264, (1R*,2R*)-2-(5-(2-Fluoro-4-methoxy-5-(((1S,2R,3S,4R)-3-((3-((trifluoromethyl)sulfonyl)phenyl)carbamoyl)bicyclo[2.2.1]heptan-2-yl)carbamoyl)phenyl)pyrazin-2-yl)cyclopropane-1-carboxylic acid]	101	82
COc1cc(C#N)c(O[C@H]2CC[C@@](C)(C(=O)O)CC2)cc1C(=O)N[C@@H]1[C@H]2CC[C@H](C2)[C@@H]1C(=O)N[C@@H](C)c1ccccc1 (racemic) [Example 140]	95	84
COc1cc(F)c(O[C@H]2CC[C@@](C)(C(=O)O)CC2)cc1C(=O)N[C@@H]1[C@H]2CC[C@H](C2)[C@@H]1C(=O)N[C@@H](C)C(F)(F)F [Example 601]	116	–
